Patent publication EP2439195B1, “NAPHTHALENE CARBOXAMIDE DERIVATIVES AS INHIBITORS OF PROTEIN KINASE AND HISTONE DEACETYLASE, PREPARATION METHODS AND USES THEREOF” (Shenzhen Chipscreen Biosciences, Ltd., priority 2009, dated 2010)
pIC50: −log10 of the molar value.

How the values were obtained:
Class I HDAC = assay: HDAC subtype selectivity reporter gene assay (P21 reporter, HeLa cells); assay type: cell-based; settings: Homo sapiens; 10µM; HeLa cells, 24 hours; read-out: Class I HDAC (P21 reporter assay) Fold Induction at 10µM
Procedure: Different HDAC subtypes can bind with different transcriptional factors and involve in expression regulation of various genes. Suitable regulation elements for transcriptional factors are selected to construct reporter genes, which can be used to evaluate the selective inhibition of inhibors on HDAC subtypes. Briefly, HeLa cells were seeded in 96-well plates the day before transfection to give a confluence of 50-80% when transfection. Cells were transfected with one of reporter gene plasmid containing a p21-promoter sequence or response element upstream of a luciferase gene construct using FuGene6 transfection reagent according to the manufacturer's instruction (Roche). For normalizing the transfection efficiency, a GFP expression plasmid was cotransfected. After 24 hours compounds or the vehicle control (DMSO) were added. 24 hours later the cells were harvested and lysed, and the amount of the luciferase was evaluated using luciferase assay kits (Promega) according to the manufacturer's instructions.

total HDAC enzyme = assay: In vitro total HDAC enzyme activity (HDAC Fluorimetric Assay/Drug Discovery Kit, HeLa cell nuclear extract); assay type: biochemical
Procedure: The in vitro total HDAC enzyme activity was determined by HDAC Fluorimetric Assay/Drug Discovery Kit (BIOMOL) according to manufacture's instruction. The principle of the experiment is as follows: under the action of histone deacetylase (in the experiment, HeLa cell nuclear extract, which was rich in a variety of subtypes of HDAC, was used), an acetyl group is removed from a special substrate Fluor de Lys, thus the free amino is exposed. Upon Developer is added, the substrate will produce fluorescence. For the fluorescence, excitation wavelength is 360nm, and emission wavelength is 460nm. More fully the substrate deacetylated, more higher the fluorescence induced. In the absence of inhibitors, the fluorescence value is taken as the control; when inhibitor is existed, fluorescence value induced will be reduced, while in the case no enzyme is existed (corresponding to the completely inhibition of enzyme activity) the fluorescence value is blank. Generally, after suppression the fluorescence values will be between the control and blank. When analysis is made, blank will be used as 0, and the control will be used as 1. Smaller value means higher inhibitory activity. 1. Add Assay buffer, diluted trichostatin A and test inhibitor to appropriate wells of the microtiter plate. Following table lists the amounts used for each regent of various assay types.
2. Add diluted HeLa nucleoprotein extract to all wells except those that are marked as "blank". 3. Allow diluted Fluor de Lys™ Substrate and the samples in the microtiter plate to equilibrate to 25°C. 4. Initiate HDAC reactions by adding diluted substrate (25 µl) to each well and mixing thoroughly. 5. Allow reactions to proceed for 30 minutes and then stop them by addition of Fluor de Lys™ Developer (50 µl). Incubate plate at room temperature (25°C) for 10-15 min. 6. Read fluorescence of samples on a microtiter-plate reading fluorimeter at a excitation wavelength of 369 nm and a emitted wavelength of 451 nm.

human PDGFRβ = target: T1, human PDGFRβ (Homo sapiens, UniProt P09619); assay: PDGF dependent cell proliferation (MTS); assay type: cell-based; settings: PDGFRβ NIH-3T3 cells, PDGF BB (50ng/ml), 72 hours, serum-free medium; read-out: Gl50 nM (PDGF ligand-dependent cell proliferation)
T1 construct: expressed in transfected cells
Procedure: NIH-3T3 mouse fibroblasts cell line engineered to stably express human PDGFRβ was constructed and used to evaluate PDGF dependent cell proliferation. PDGFRβ NIH-3T3 cells were plated into 96-well plates at 5,000 per well and incubated overnight with serum-free medium after 24 hours. Compounds to be tested and PDGF BB (50ng/ml) were added and incubated for 72 hours in serum-free medium. The effects on proliferation were determined by MTS method (Promega) according to the instruction. Incubation was performed for 2 hours at 37°C in CO2 incubator, and absorbance at 490nm was measured using an ELISA plate reader.

MCF-7 = assay: Tumor cell proliferation (MTS), MCF-7; assay type: cell-based; settings: Homo sapiens, MCF7; MCF-7, 72 hours; read-out: Gl50 µM in MCF-7
Procedure: (§1) Tumor cells were trypsinized and plated into 96-well plates at 3,000 per well and incubated in complete medium with 10% FBS for 24 hours. Compounds to be tested and vehicle control were added, and the final concentration of compound is in the range of 100 nmol/L to 100 µmol/L. The compounds were incubated for 72 hours in complete medium. The MTS reagent (Promega) was added according to the instruction, incubated for 2 hours at 37°C in CO2 incubator. Then absorbance at 490nm is read using an ELISA plate reader.

HUVEC cells = assay: VEGF dependent cell proliferation (MTS); assay type: cell-based; settings: Homo sapiens, VEGF 165 (50ng/ml), 72 hours, serum-free medium, read-out: Gl50 nM (VEGF ligand-dependent cell proliferation)
Procedure: HUVEC cells were plated into 96-well plates at 6,000 per well and after 24 hours incubated with serum-free medium for 2 hours. Compounds to be tested and VEGF 165 (50ng/ml) were added and incubated for 72 hours in serum-free medium. The effects on cell proliferation were determined by MTS method (Promega) according to the instruction. Incubation was performed for 2 hours at 37°C in CO2 incubator, and absorbance at 490nm was determined using an ELISA plate reader.

A-498 = assay: Tumor cell proliferation (MTS), A-498; assay type: cell-based; settings: Homo sapiens, A498; A-498, 72 hours; read-out: Gl50 µM in A-498
Procedure: as §1

[1] = tested on: SSMC7721 human liver cancer cells; assay: Nude mice tumor transplanted from human SSMC7721 liver cancer (Example 53); assay type: in vivo; settings: for TGI (%): tumor growth inhibition
Procedure: Female nu/nu mice of 18∼20g were fed by normal diet for 3 days. Then the cultured SSMC7721 human liver cancer cells were implanted into the armpit of 50 mice. […] One group was treated with vehicle. One group was treated with Sutent, the positive control drug. […] Each group was dosed orally once a day for 24 days. […] The tumor growth inhibition of each group was calculated using the following formula: {[([…])} × 100%. [formula] The experimental results are shown in Table 7 and Figure 3.

Bel-7402 = assay: Tumor cell proliferation (MTS), Bel-7402; assay type: cell-based; settings: Homo sapiens; Bel-7402, 72 hours; read-out: Gl50 µM in Bel-7402
Procedure: as §1

HCT-8 = assay: Tumor cell proliferation (MTS), HCT-8; assay type: cell-based; settings: Homo sapiens; HCT-8, 72 hours; read-out: Gl50 µM in HCT-8
Procedure: as §1

A549 = assay: Tumor cell proliferation (MTS), A549; assay type: cell-based; settings: Homo sapiens; A549, 72 hours; read-out: Gl50 µM in A549
Procedure: as §1

[2] = 2.5 mg/kg orally once a day for 24 days
[3] = 5 mg/kg orally once a day for 24 days
[4] = 10 mg/kg orally once a day for 24 days
[5] = 20 mg/kg orally once a day for 24 days

T1 sequence (P09619 33-1106): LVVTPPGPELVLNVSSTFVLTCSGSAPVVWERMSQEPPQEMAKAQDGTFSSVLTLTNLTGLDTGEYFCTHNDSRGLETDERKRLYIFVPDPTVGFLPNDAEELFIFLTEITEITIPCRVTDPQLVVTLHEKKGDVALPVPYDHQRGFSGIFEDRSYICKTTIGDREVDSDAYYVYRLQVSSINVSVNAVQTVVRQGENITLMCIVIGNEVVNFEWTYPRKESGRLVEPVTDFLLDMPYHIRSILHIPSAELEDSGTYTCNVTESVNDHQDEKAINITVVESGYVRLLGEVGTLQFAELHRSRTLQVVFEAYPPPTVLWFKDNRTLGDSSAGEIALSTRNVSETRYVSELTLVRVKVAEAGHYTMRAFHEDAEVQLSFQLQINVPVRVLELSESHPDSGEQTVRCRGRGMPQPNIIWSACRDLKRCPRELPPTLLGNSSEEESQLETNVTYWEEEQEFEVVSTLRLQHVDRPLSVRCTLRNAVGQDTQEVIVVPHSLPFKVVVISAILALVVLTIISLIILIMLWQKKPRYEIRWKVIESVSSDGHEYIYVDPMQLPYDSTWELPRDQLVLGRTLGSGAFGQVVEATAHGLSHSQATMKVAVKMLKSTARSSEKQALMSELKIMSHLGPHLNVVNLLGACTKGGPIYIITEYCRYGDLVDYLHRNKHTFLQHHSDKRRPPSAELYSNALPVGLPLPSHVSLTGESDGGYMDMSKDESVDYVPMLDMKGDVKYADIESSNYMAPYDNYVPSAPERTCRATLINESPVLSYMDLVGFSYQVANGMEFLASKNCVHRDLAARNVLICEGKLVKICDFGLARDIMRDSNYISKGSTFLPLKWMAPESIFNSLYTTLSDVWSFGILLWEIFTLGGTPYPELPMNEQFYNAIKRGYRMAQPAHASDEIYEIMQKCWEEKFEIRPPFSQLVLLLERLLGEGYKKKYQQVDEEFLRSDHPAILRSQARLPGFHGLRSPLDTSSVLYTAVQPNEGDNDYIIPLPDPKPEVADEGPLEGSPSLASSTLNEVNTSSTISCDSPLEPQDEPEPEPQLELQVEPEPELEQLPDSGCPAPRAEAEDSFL

Compound | fold induction at 10 µM (Class I HDAC) | % inhibition of total HDAC enzyme activity at 30µM (total HDAC enzyme) | pIC50 (human PDGFRβ) | pIC50 (MCF-7) | pIC50 (HUVEC cells) | pIC50 (A-498) | pIC50 (Bel-7402) | pIC50 (HCT-8) | pIC50 (A549) | further results
COc1ccc2c(Oc3ccc4c(C(=O)Nc5ccccc5N)cccc4c3)ccnc2c1 [Compound 31, N-(2-aminophenyl)-6-(7-methoxyquinolin-4-yloxy)-1-naphthamide] | 1.6 | 10.1% | 7.34 | 4.99 | 8.30 | 5.02 | 4.52 | 5.18 | 4.76 | Tumor weight [1, 2]: 1.63 ± 0.70 g; Body weight (g) end [1, 2]: 23.2 ± 2.1 g; Body weight (g) start [1, 2]: 20.1 ± 0.9 g; TGI (%) [1, 2]: 51.7%; Tumor weight [1, 3]: 1.16 ± 0.55 g; Body weight (g) end [1, 3]: 24.8 ± 1.5 g; Body weight (g) start [1, 3]: 20.8 ± 1.2 g; TGI (%) [1, 3]: 65.4%; Tumor weight [1, 4]: 0.70 ± 0.45 g; Body weight (g) end [1, 4]: 23.6 ± 1.5 g; Body weight (g) start [1, 4]: 20.4 ± 1.6 g; TGI (%) [1, 4]: 79.2%; Tumor weight [1, 5]: 0.53 ± 0.28 g; Body weight (g) end [1, 5]: 21.0 ± 2.2 g; Body weight (g) start [1, 5]: 20.2 ± 1.7 g; TGI (%) [1, 5]: 84.4%
COc1ccc2c(Oc3ccc4c(C(=O)NCc5ccc(C(=O)Nc6ccccc6N)cc5)cccc4c3)ccnc2c1 [Compound 33, N-(4-((2-aminophenyl)carbamoyl)benzyl)-6-(7-methoxyquinolin-4-yloxy)-1-naphthamide] | 2.8 | 39.1% | 6.52 | 5.70 | 8.10 | 5.72 | 5.55 | 5.82 | 5.68 | –
